The text below walks through data of patent US5466678A, “Co-administration of S-adenosyl-L-methionine to reduce the nephrotoxicity of cisplatin therapy” (priority 1992, dated 1995).

pIC50: −log10 of the molar value. Where two headings read alike, the source gives them in different places. A value given as a limit tells only on which side of the number the result lay.

The subject of data set [1] is L1210 leukemic cells. In words: Test Example 7: in vitro antitumor activity, L1210. The settings on record: test drug alone. Format: cell-based, mouse. Here is the method: (§1) Mouse L1210 and P388 leukemic cells were adjusted to 10^4 cells/ml in culture medium RPMI 1640, and the mixture was dispensed in 2 ml portions into culture test tubes (Falcon No. 2054) and cultured at 37° C. for 5 hours in the presence of 5% carbonic acid gas in a carbonic acid gas incubator. CDDP and/or SAMes were (was) then added into each culture test tube and incubation was continued for further one hour. The cultures were centrifuged at 1,600 rpm for 5 minutes and the culture medium was removed with suction. Two ml of RPMI 1640 was added to the residue and the mixture was cultured for 72 hours under the same conditions as described above, whereafter the number of cells in each of the resulting cultures was measured on a Coulter counter (Model ZB).

In another data set the test system is P388 leukemic cells. In words: Test Example 7: in vitro antitumor activity, P388. The format is cell-based, mouse. The settings on record: CDDP alone. The procedure: The cultures were centrifuged at 1,600 rpm for 5 minutes and the culture medium was removed with suction.
Data set [2] has as its system Colon 26 colon tumor cells. Description: Test Example 9: in vitro antitumor activity, Colon 26. Format: cell-based, mouse. The settings on record: CDDP alone. The procedure:
(§2) Mouse Colon 26 colon tumor cells were adjusted to 5×10^3 cells/ml in culture medium […] culture was dispensed in 2 ml portions into culture Petri dishes. […] The culture medium was removed with suction, and after washing once with cold PBS(-) 2 ml portions of fresh medium were dispensed into the cultures, which were then cultured for further 72 hours. The cells were treated with trypsin, diluted and then counted using a Coulter counter.

The subject of data set [3] is A549 pulmonary adenocarcinoma. In words: Test Example 10: antitumor activity against human tumors, A549. The format is cell-based. The settings on record: CDDP alone. Here is the method:
(§3) After the culture medium was removed with suction, the respective residues were washed once with cold PBS (-), supplemented with 2 ml portions of fresh medium and then cultured for further 72 hours. The cells were treated with trypsin, diluted and then counted using a Coulter counter.
(§4) Culture medium MEM: 10% fetal calf serum, Kanamycin (60 μg/ml)
A549: pulmonary adenocarcinoma;

The subject of the next data set is LU65 pulmonary cancer. Description: Test Example 10: antitumor activity against human tumors, LU65. The format is cell-based. The settings on record: CDDP alone. The procedure: as §3, §4
Data set [4] has as its system MKN28 gastric adenocarcinoma. Description: Test Example 10: antitumor activity against human tumors, MKN28. The format is cell-based. To be noted: CDDP alone. The procedure:
as §3, §4
MKN28: gastric adenocarcinoma;

In data set [5] the test system is MKN45 gastric adenocarcinoma. Description: Test Example 10: antitumor activity against human tumors, MKN45. Format: cell-based. To be noted: CDDP alone. Here is the method: as §3, §4
MKN45: gastric adenocarcinoma;

In data set [6] the test system is DLD-1 colon adenocarcinoma. In words: Test Example 10: antitumor activity against human tumors, DLD-1. The settings on record: CDDP alone. The format is cell-based. Here is the method:
as §3, §4
DLD-1: colon adenocarcinoma;

The subject of data set [7] is WiDr colon adenocarcinoma. Description: Test Example 10: antitumor activity against human tumors, WiDr. Format: cell-based. To be noted: CDDP alone. The procedure: as §3, §4
WiDr: colon adenocarcinoma;

Data set [8] relates to MCAS ovarian cyst adenocarcinoma. Description: Test Example 10: antitumor activity against human tumors, MCAS. The format is cell-based. The settings on record: CDDP alone. The procedure:
as §3, §4
MCAS: ovarian cyst adenocarcinoma;

Another data set concerns PA-1 ovarian teratoma. In words: Test Example 10: antitumor activity against human tumors, PA-1. The settings on record: CDDP alone. Format: cell-based. Here is the method:
as §3, §4

Data set [9] relates to ACHN renal adenocarcinoma. Description: Test Example 10: antitumor activity against human tumors, ACHN. The format is cell-based. The settings on record: CDDP alone. The procedure:
as §3, §4
ACHN: renal adenocarcinoma

Data set [10] concerns L1210 leukemic cells. Description: Test Example 8: in vivo potentiation of antitumor activity of CDDP, L1210. More on the design: species or system mouse (CDF1 strain). To be noted: for Animals showing 30 days of survival / ILS: days 1 and 5; for Change in body weight: day 7 minus day 1. An excerpt:
Groups each containing six 8-week-old male mice of the CDF1 strain, weighing 24-28 g, were used. Mouse L1210 leukemic cells (10^5 cells) were transplanted into the abdominal cavity (on day 0).
wherein T stands for the average number of days of survival in the CDDP-administered groups of animals, and C for that in the non-CDDP-administered group (control group) of animals.
When the animals survived 30 days or more, the number of days of survival was deemed as 30 days for the purpose of calculation.
The administration was carried out intraperitoneally each time (on days 1 and 5). […] And the changes in body weight are presented as the difference between the mean body weights on days 1 and 7 (average body weight on day 7--average body weight on day 1) for each group.

In data set [11] the test system is L1210 leukemic cells. Description: Test Example 11: potentiation by intraperitoneally or intravenously administered SAMe against mouse tumor L1210. The format is in vivo, mouse (CDF1).
Source text: Groups each containing six 8- to 9-week-old male CDF1 mice weighing 24-28 g were used. Mouse L1210 leukemic cells (10^5 cells) were transplanted into the abdominal cavity (on day 0).
For a further data set, the system named is mouse tumors. Description: Antitumor activity in vitro, mouse tumors (summary). Format: cell-based. The settings on record: CDDP alone. The procedure:
as §1, §2

For another data set, the system named is human tumors. In words: Antitumor activity in vitro, human tumors (summary). Format: cell-based. To be noted: CDDP alone. Here is the method: Human tumor cells which are listed below were adjusted to 5×10^3 -2×10^4 cells/ml in culture medium RPMI 1640 (N.B. 1) or MEM (N.B. 2), and the respective cultures were dispensed in 2 ml portions into culture Petri dishes. […] After the culture medium was removed with suction, the respective residues were washed once with cold PBS (-), supplemented with 2 ml portions of fresh medium and then cultured for further 72 hours. The cells were treated with trypsin, diluted and then counted using a Coulter counter.

The format of data set [12] is in vivo, rat (SD strain). To be noted: for Concentration of SH compounds in blood plasma (as converted to glutathione concentration) / Concentration of SH compounds in renal tissue (as converted to glutathione concentration): mean ± S.D. Here is the method:
Test method: To 6-week-old rats of the SD strain was intravenously administered SAMe in physiological saline (30 mg/kg, pH 6), and the blood level of SH group-containing compounds in the renal tissue was measured thereafter at 30, 60 and 120 minutes (N. Kaplowits et al., J. Pharmacol. Exp. Ther. , 1977, 200, 279-286) .
The values in the table for the concentration of SH compounds in the renal tissue and blood plasma presented as means ± standard deviation as calculated on the assumption that all the SH compounds were glutathione.

Data set [13] concerns nephrotoxicity caused by CDDP. In words: Test Example 2: nephrotoxicity (BUN) after single administration of CDDP in the dog. The format is in vivo, dog (beagle). The settings on record: for BUN concentration: mean ± SD. Here is the method:
Nine beagle dogs (weighing 10.2-14.5 kg; 24-36 months of age) were divided into three groups of three animals each. […] BUN values were measured every two days after the administration and compared.

The next data set concerns tumor cells. Description: Antitumor activity, all tumor cells tested (summary). The format is cell-based, mouse and human. To be noted: SAMe alone, respective tumor cells. The procedure:
as §1
Mouse Colon 26 colon tumor cells were adjusted to 5×10^3 cells/ml in culture medium […] culture was dispensed in 2 ml portions into culture Petri dishes. […] The cells were treated with trypsin, diluted and then counted using a Coulter counter.
Human tumor cells which are listed below were adjusted to 5×10^3 -2×10^4 cells/ml in culture medium RPMI 1640 (N.B. 1) or MEM (N.B. 2), and the respective cultures were dispensed in 2 ml portions into culture Petri dishes. […] The cells were treated with trypsin, diluted and then counted using a Coulter counter.

For data set [14] the following is noted: in vivo, iv.
For data set [15] the following is noted: intraperitoneal administration, rat; cited from earlier work.
Setting [16] is: 30 min after SAMe 30 mg/kg i.v.
The mark [17] stands for this setting: 60 min after SAMe 30 mg/kg i.v.
[18] abbreviates: 120 min after SAMe 30 mg/kg i.v.

`N.N.[Cl][Pt][Cl]` [CDDP, cis-diamine-dichloroplatinum]: the pIC50 in the data set with L1210 leukemic cells [1] is 4.79; in the data set on P388 leukemic cells it was 5.46; in [2], 4.38; in data set [3] it was 4.73; with LU65 pulmonary cancer, 4.69; in data set [4], 4.20. For the same molecule, the pIC50 in [5] was 4.60; in data set [6] it was 4.63; in data set [7], 4.42; in data set [8] it was 3.82; with PA-1 ovarian teratoma, 5.39; in [9], 4.32. For the same molecule, the pIC50 in the data set with mouse tumors was 4.38 to 5.46; with human tumors, 3.82 to 5.39. In addition, the “Animals showing 30 days of survival” value in the data set with L1210 leukemic cells [10] (CDDP 4 mg/kg alone i.p.) and in the data set with L1210 leukemic cells [10] (CDDP 6 mg/kg alone i.p.) was 0/6 each time. In addition, the increase in life span (ILS) in the data set with L1210 leukemic cells [10] (CDDP 4 mg/kg alone i.p.) turned out to be 73%; in the data set with L1210 leukemic cells [10] (CDDP 6 mg/kg alone i.p.), 121%; with L1210 leukemic cells [11] (CDDP 4 mg/kg alone, intraperitoneal), 78%; in the data set on L1210 leukemic cells [11] (CDDP 4 mg/kg alone, intravenous), 28%; in the data set with L1210 leukemic cells [11] (CDDP 6 mg/kg alone, intraperitoneal) it was 84%. For the same molecule, the “Change in body weight” value in the data set with L1210 leukemic cells [10] (CDDP 4 mg/kg alone i.p.) is given as -2.4 g; in the data set on L1210 leukemic cells [10] (CDDP 6 mg/kg alone i.p.) it was -4.5 g.

Consider `C[S+](CC[C@H](N)C(=O)O)C[C@H]1O[C@@H](n2cnc3c(N)ncnc32)[C@H](O)[C@@H]1O` (stereo partly drawn) [SAMe, S-adenosyl-L-methionine], for which the “Concentration of SH compounds in blood plasma (as converted to glutathione concentration)” value came to 12.2 ± 2.7 μg/ml blood plasma in data set [12] (setting [16]), 12.5 ± 2.1 μg/ml blood plasma in data set [12] (setting [17]) and 18.5 ± 3.0 μg/ml blood plasma in data set [12] (setting [18]). The “Concentration of SH compounds in renal tissue (as converted to glutathione concentration)” value in data set [12] (setting [16]) came out at 1219.3 ± 68.3 μg/g organ; in data set [12] (setting [17]), 1256.0 ± 125.3 μg/g organ; in data set [12] (setting [18]), 1201.1 ± 37.8 μg/g organ. Moreover, the “Accumulation in renal tissue” value in data set [12] (rat, in vivo, iv) is “accumulate the SAMe specifically in the renal tissue”. In addition, the BUN concentration stood at 15.0 ± 1.04 mg/dL in data set [13] (SAMe 30 mg/kg i.v. with CDDP 4 mg/kg, day 1); 167.2 ± 102.30 mg/dL in data set [13] (SAMe 30 mg/kg i.v. with CDDP 4 mg/kg, day 6); 41.62 ± 0.00 mg/dL in [13] (SAMe 30 mg/kg i.v. with CDDP 4 mg/kg, day 12); 13.4 ± 2.80 mg/dL in data set [13] (SAMe 100 mg/kg i.v. with CDDP 4 mg/kg, day 1); 27.6 ± 19.151 mg/dL in data set [13] (SAMe 100 mg/kg i.v. with CDDP 4 mg/kg, day 6); 25.5 ± 13.36 mg/dL in data set [13] (SAMe 100 mg/kg i.v. with CDDP 4 mg/kg, day 12). Besides, the “Mortality by day 7” value in data set [13] (SAMe 30 mg/kg with CDDP 4 mg/kg) is recorded as “two out of the three animals”. For the same molecule, the results for the pIC50 in the data set on L1210 leukemic cells [1] (Mus musculus) and with tumor cells were under 3.00 and at most 3.00, respectively. The “Distribution to renal tissue” value in data set [14] was “concentrates specifically at the renal tissue”. The “Metabolism at the renal tissue” value in data set [14] is “converted through the process of transmethylation to S-adenosylhomocysteine”. Moreover, in data set [15], the LD50 was 2,000-2,500 mg/kg.

As usually defined, the pIC50 is the negative decadic logarithm of the IC50, by convention in mol/L. Low readings indicate a large IC50, high ones a small IC50. Usually ILS stands for the gain in survival time of treated over control animals, in per cent.
